Laboratory results from patent publication US10960020B2, “Modulation of PCSK9 and LDLR through DRP1 inhibition” (THE BRIGHAM AND WOMEN'S HOSPITAL, INC., priority 2016, dated 2021).

What was measured:
[1] = test system: diabetic apolipoprotein E-deficient mice; conditions: cited from earlier work
SREBP-1c mRNA = assay: Real time PCR, HepG2 SREBP-1c mRNA; format: cell-based, human; conditions: HepG2, Mdivi-1 50 μM, 24 hours
Description: Human cells and mouse liver was homogenized with TriZolTM (Life Technologies, Grand Island, N.Y.) to isolate RNA. QuantiTectTM Reverse Transcription Kit (Qiagen, Hilden, Germany) was used for reverse transcription on total RNA. cDNA was generated using the Quanta gScriptTM cDNA Synthesis Kit (Bioscience Inc., Gaithersburg, Md.). mRNA levels were quantified on a 7900HT real-time PCR system (Thermo Fisher Scientific) using TaqManTM real-time PCR with the following probes: Hs02758991_g1 (human GAPDH); Mm99999915_g1 (mouse Gapdh); Hs00236329 m1 (human BCL2L1); Hs00247147_m1 (human DRP1); Hs00545399_m1 (human PCSK9); Mm01263610_m1 (mouse Pcsk9); Hs00168352_m1 (human HMGCR); […]); Hs00181192_m1 (human LDLR); Mm00440169_m1 (mouse Ldlr); Hs01088691_m1 (human SREBP1); Mm00550338_m1 (mouse Srebp1); Hs00231674_m1 (human SREBP1a); custom primer (human SREBP1c); Hs01081784_m1 (human SREBP2); Mm01306292_m1 (mouse Srebp2); Hs01005622_m1 (human FASN); […]); Hs00167041_m1 (human HNF1A); Mm00493434_m1 (mouse Hnf1a); Hs00171168 (human APOE); Hs01059118_m1 (human ABCA1); Hs01103582_s1 (human JUN). Mouse SREBP-1c was analyzed by SYBERTM green PCR with the following primers: [NT] All expression levels were normalized to GAPDH using the ΔΔCT method.

LDLR protein = assay: Western blot, HepG2 LDLR protein; format: cell-based, human; conditions: HepG2, 24 hours; Mdivi-1 50 μM, pitavastatin 1 μM, T0901317 1 μM
cellular PCSK9 protein = assay: Western blot, HepG2 cellular PCSK9 protein; format: cell-based, human; conditions: HepG2, Mdivi-1 50 μM, 24 hours
HMGCR = assay: Western blot, HepG2 HMGCR protein; format: cell-based, human; conditions: HepG2, Mdivi-1 50 μM, 24 hours
[2] = test system: PCSK9 secretion in primary human hepatocytes; assay: Secreted PCSK9 ELISA, primary human hepatocytes; format: cell-based; conditions: Mdivi-1 50 μM, 24 hours
Procedure: Pitavastatin and T0901317 were synthesized and provided by Kowa Company, Ltd. (Tokyo, Japan), and treated at a dose of 1 μM in all experiments. DMSO (vehicle; final concentration 0.01%) and Mdivi-1 (>99.85% purity) were purchased from Sigma (St. Louis, Mo.). Mdivi-1 in DMSO vehicle was added at a concentration of 50 μM in all experiments. Mdivi-1 in DMSO vehicle was added to cell culture media in a 50 mL tube, vortexed hard for several minutes and then incubated at 37° C. prior to adding to cells to ensure the compound was fully solubilized.
HepG2 cells were obtained from ATCC (Manassas, Va.), and cultured in EMEM with L-glutamine (ATCC) medium, 1% pen/strep, with and without 10% FBS (Thermo Fisher Scientific, Waltham, Mass.) in 12-well plates (Corning, Durham, N.C.). HepG2 cells were plated at a density of 60-70% prior to treatment to avoid clumping. […] Cell viability was assessed by Trypan Blue exclusion using live/dead cell counting on a Countess™ II LT automated cell counter (Thermo Fisher Scientific).
Mouse serum PCSK9 was measured using the mouse proprotein convertase 9/PCSK9 quantikine ELISA kit (MPC900, R&D Systems, Minneapolis, Minn.), and human liver cell secreted PCSK9 using the human proprotein convertase 9/PCSK9 DuoSet ELISA (DY3888, R&D Systems), both according to manufacturers' protocols.

In the case of `COc1cc(-n2c(S)nc3ccccc3c2=O)c(Cl)cc1Cl` [Mdivi-1, 3-(2,4-Dichloro-5-methoxyphenyl)-2,3-dihydro-2-thioxo-4(1H)-quinazolinone], the “oxidative stress and inflammation” value [1] is given as “reduces”, the “SREBP-1c mRNA” value (SREBP-1c mRNA) is given as “strongly reduced” and the “HepG2 LDLR protein increase” value (LDLR protein) is given as 5.8 fold. The “Cellular PCSK9 protein abundance” value (cellular PCSK9 protein) was “reduced”, the HMGCR abundance increase (HMGCR) was “not” and the “PCSK9 secretion by ELISA” value [2] was “reduced”.
